In US20210052719A1, “A UNIVERSAL VACCINE AGAINST INFLUENZA” (Development Center for Biotechnology, priority 2017, published 2021):
No end group written: not given here.

Legend:
[1] = antibody generation by immunizing mice with peptide, serum IgG by ELISA; assay type: in vivo, BALB/c and C57BL/6 mice; settings: for induction of antibody (specific anti-JJ IgG): 5 μg, 15 μg, or 45 μg dose, ELISA with JJ peptide coated, FIG. 2A, 2B
Experimental: In this example, the peptide antigens in accordance with embodiments of the invention were used to induce antibody formation in mice. BALB/c and C57BL/6 mice (6-8 weeks old) were obtained from BioLASCO Taiwan (Taipei, Taiwan) or National Laboratory Animal Center (Taipei, Taiwan).
[…] Each group of mice was injected with a different peptide (Exp0-Exp5) solution as an antigen. For the first immunization, each mouse was given a subcutaneous injection with 100 μL (containing […] each) of the above prepared antigen solution.
The second injection was given 10-14 days after the first injection. The solution for the second injection was prepared by mixing each peptide (6 different peptides, Exp0-Exp5, each at 1:1 mix) in Freund's incomplete adjuvant. The injections were repeated for subsequent immunizations every 10-14 days after the previous injections until antibodies could be detected in sera, which took from 3-6 injections.
Mouse sera were collected at the following time points: preimmunization and at the middle time point between two adjacent injections. Once the antibodies became detectable in sera, the serum collections were performed every two weeks until antibodies could no longer be detected, which typically took about half a year. The serum collections were performed from the cheeks of the mice. Each time, 100 uL or less of blood was collected and the collection frequency was about once every two weeks. At the end of the experiments, mice were euthanized with carbon dioxide.
Antibody titers were determined using ELISA. First, a capture antibody (e.g., JJ peptide or various subtypes of hemagglutinins or fragments thereof) was coated on a 96-well microplate (100 μL per well of the diluted capture antibody). The plate was sealed and incubated at 4° C. overnight. Then, 100 μL of sample (e.g., antiserum) or standards in sample dilution buffer were added per well. […]
(§1) After the reaction, 50 μL of stop solution (acid solution) was added to each well. Then, the optical density of each well was measured immediately, using a microplate reader set to 450 nm.

JJ peptide = test: ELISA cross-reaction of induced IgGs with JJ peptide coated on plate; assay type: binding; settings: IgGs induced by the peptide, FIG. 2A, 2B
Experimental: (§2) Antibody titers were determined using ELISA. First, a capture antibody (e.g., JJ peptide or various subtypes of hemagglutinins or fragments thereof) was coated on a 96-well microplate (100 μL per well of the diluted capture antibody). The plate was sealed and incubated at 4° C. overnight. Then, 100 μL of sample (e.g., antiserum) or standards in sample dilution buffer were added per well. The plate was sealed and incubated at room temperature for 1 hr.
(§3) After incubation, 100 μL of a detection antibody (e.g., a horseradish peroxidase (HRP) coupled antibody), diluted in antibody dilution buffer, was added to each well. The plate was sealed and incubated at room temperature for 1 hr. Then, 200 μL of substrate solution (3,3′,5,5′-tetramethylbenzidine (TMB)) was added to each well. The reaction mixtures were incubated for 20 minutes at room temperature, without exposing the plate to direct light.
as §1

[2] = test system: H1 subtype of hemagglutinin; test: ELISA antibody titers against hemagglutinin subtypes; assay type: binding, influenza virus; settings: FIG. 3
Experimental: as §2, §3, §1

[3] = test system: H3 subtype of hemagglutinin; test: as above; assay type: binding, influenza virus; settings: FIG. 3
Experimental: as §2, §3, §1

[4] = test system: H5 subtype of hemagglutinin; assay type: binding, influenza virus
[5] = test system: H7 subtype of hemagglutinin; assay type: binding, influenza virus
[6] = test system: influenza viruses of the H1 subtype; parameters: species or system influenza virus
[7] = test system: influenza viruses of the H3 subtype; parameters: species or system influenza virus
[8] = test system: influenza viruses of the H5 subtype; parameters: species or system influenza virus
protease = settings: phenylalanine residues of JJ substituted

Sequence: GLFGAIAGFIE [JJ]
- induction of antibody (specific anti-JJ IgG) [1]: induced antibody (IgG) production
- binding of induced IgGs to JJ peptide (cross-reaction) (JJ peptide): bind the JJ peptide
- reaction of antibodies generated with the peptide with hemagglutinin [2]: reacted
- reaction of antibodies generated with the peptide with hemagglutinin [3]: reacted
- reaction of antibodies generated with the peptide with hemagglutinin [4]: reacted
- reaction of antibodies generated with the peptide with hemagglutinin [5]: reacted
- inhibition of hemagglutination by induced antibodies [6]: able to inhibit hemagglutination
- inhibition of hemagglutination by induced antibodies [7]: able to inhibit hemagglutination
- inhibition of hemagglutination by induced antibodies [8]: able to inhibit hemagglutination

Sequence: GLMGAIAGPIEF [JJ-2]
- protease resistance (protease): protease-resistant

Sequence: GLHGAIAGLIENGW [JJ-4]
- protease resistance (protease): protease-resistant

Sequence: GLLGAIAGPIEGGW [JJ-3]
- induction of antibody (specific anti-JJ3 IgG) ([1]; higher doses (15 μg and 45 μg), ELISA with peptide JJ-3 coated, FIG. 2C): induced the production of specific anti-JJ3 antibodies
- protease resistance (protease): protease-resistant

Sequence: GLLGAIAGPIEF [JJ-1]
- induction of antibody (specific anti-JJ IgG) [1]: efficiently induce IgG production
- binding of induced IgGs to JJ peptide (cross-reaction) (JJ peptide): bind the JJ peptide
- reaction of antibodies generated with the peptide with hemagglutinin [2]: reacted
- reaction of antibodies generated with the peptide with hemagglutinin [3]: reacted
- reaction of antibodies generated with the peptide with hemagglutinin [4]: reacted
- reaction of antibodies generated with the peptide with hemagglutinin [5]: reacted
- inhibition of hemagglutination by induced antibodies [6]: able to inhibit hemagglutination
- inhibition of hemagglutination by induced antibodies [7]: able to inhibit hemagglutination
- inhibition of hemagglutination by induced antibodies [8]: able to inhibit hemagglutination
- protease resistance (protease): protease-resistant
